Reference: patent publication US9400283B2, “In vitro method using human skin for evaluating the influence of ABC transporters” (GALDERMA RESEARCH & DEVELOPMENT, priority 2011, dated 2016)

How the values were obtained:
[1] = system: ex vivo human skin samples; assay: In vitro skin absorption of vinblastine (receptor fluid, liquid scintillation counting); settings: for vinblastine skin absorption (amount in receptor fluid): 16 hours
human skin samples [2] = assay: Skin distribution of Rhodamine 123 by epifluorescence microscopy; assay type: in vitro ADME; settings: skin samples treated with Verapamil, data not shown
human skin samples [3] = assay: Cutaneous distribution of LTC4 by autoradiography of skin sections; assay type: in vitro ADME
Experimental: The distribution of Vinblastine in the skin was analyzed by autoradiography. Skin samples were placed in a tissue holder and freeze-mounted in cryomount embedding medium. The frozen blocks were sectioned into slices 8-10 μm thick, perpendicular to the epidermal surface in a cryomicrotome (Thermo Electron). The sections were collected on glass slides and dried. Cryosections were placed on a Fuji imaging plate type Bas-III (20×40 cm) in a Fujix Bas cassette 2040 during 24 hours to 5 days. The exposed plate was scanned with a Bio-Imaging analyzer (Fujix BAS 2000). The scanned images were analyzed using TINA software.
The distribution of the LTC4 in the skin was analyzed by autoradiography. The experimental conditions are identical to those described previously for vinblastine.

human skin samples [4] = assay: In vitro cutaneous absorption of LTC4 (receptor fluid, liquid scintillation counting); assay type: in vitro ADME; settings: 68.5 nM LTC4 10 μL/cm2, 6 hours
Experimental: Tritium labeled LTC4 was used. The concentration of the LTC4 solution used was 68.5 nM (0.01 mCi/mL).
At the end of the period of treatment with the inhibitor, the skin samples, both the control samples and those treated with the inhibitor, were treated with the LTC4 solution. […] The duration of the treatment with LTC4 was 6 hours.
The in vitro LTC4 skin absorption experiments were performed with fresh skin samples originating from three different donors. The experiments were performed in 6-well Transwell plates, with a 1 cm^2 area of treated skin and receptor fluid volumes of 1.5 mL. The treatment volume for the skin surface was 10 μL, corresponding to 0.69 […] and 222 000 dpm. Three different experiments were performed with skin samples originating from three different donors. In each experiment, each condition was performed in triplicate (N=9 in total).

With `CC[C@]1(O)C[C@@H]2CN(CCc3c([nH]c4ccccc34)[C@@](C(=O)OC)(c3cc4c(cc3OC)N(C)[C@H]3[C@@](O)(C(=O)OC)[C@H](OC(C)=O)[C@]5(CC)C=CCN6CC[C@]43[C@@H]65)C2)C1` [vinblastine, Vinblastine] the “vinblastine skin absorption (amount in receptor fluid)” value ([1]; dermarolled skin (32 roller passages)) was 0.6 nmol, the “increase of vinblastine skin absorption by skin perforation by dermaroller” value ([1]; dermarolled versus intact skin) was “about 200 times” and the “vinblastine skin absorption, share of the applied dose” value ([1]; intact human skin, 2.5 mM [3H]-vinblastine 10 μL/cm2, 16 hours, receptor fluid) was 0.001 % of the applied dose. For the same compound, the “vinblastine skin absorption (amount in receptor fluid)” value ([1]; intact human skin) was 0.003 nmol, the “increase of vinblastine skin absorption by tape stripping” value ([1]; stripped versus intact skin) was “about 20 times” and the “vinblastine skin absorption (amount in receptor fluid)” value ([1]; tape stripped skin (30 stripes)) was 0.07 nmol.

`COc1ccc(CCN(C)CCCC(C#N)(c2ccc(OC)c(OC)c2)C(C)C)cc1OC` (stereo not shown) [verapamil, Verapamil] was tested, and the “effect of Verapamil on Rhodamine 123 fluorescence intensity in skin sections” value (human skin samples [2]) was “No difference in fluorescence intensity”.

With `CN(C)C(=O)CCSC(SCCC(=O)O)c1cccc(/C=C/c2ccc3ccc(Cl)cc3n2)c1` (stereo not shown) [MK571] the “effect of MK571 on cutaneous distribution of LTC4 (autoradiography signal)” value (human skin samples [3]; skin treated with the inhibitor MK571) was “appreciable increase in the intensity of the signal related to LTC4”.

With `CCCCC/C=C\C\C=C/C=C/C=C/[C@@H](SC[C@H](NC(=O)CC[C@H](N)C(=O)O)C(=O)NCC(=O)O)[C@@H](O)CCCC(=O)O` [LTC4, leukotriene-C4] the “cutaneous absorption of LTC4, share of the applied dose” value (human skin samples [4]) was “about 1.7 % of the applied dose” and the “cutaneous distribution of LTC4 (autoradiography signal)” value (human skin samples [3]; skin sections without treatment with the inhibitor) was “a radioactive signal related to LTC4 is observed in the uppermost part of the skin section corresponding to the epidermis”.
